The values below come from ChEMBL document CHEMBL1201862, “PubChem BioAssay data set” (2004).

Molecules are shown by their SMILES.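 96-well plates; 48 h exposure; 5 concentrations. Endpoints by linear interpolation between flanking doses. Not reached: highest tested concentration assigned. GI50 is the concentration that inhibits growth by half.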 The source made the active and inactive calls. Cut-off read from the data, not from the text of the source: active = GI50 up to about 1.1 µM and inactive = higher.

Some test systems named below: A498; TK-10; Malme-3M; ACHN; UO-31; SF-539; HOP-92; COLO 205; IGROV-1; MOLT-4; SK-MEL-28; HCT-116; OVCAR-5; HL-60; HCT-15.
Holding throughout (assay): DTP human tumour cell line panel, 48 h

Broadly, the GI50 is the concentration that inhibits growth by half. Consider `C=CCC1=C(C)C[C@@H]2CCC(=O)C=C12`, for which the GI50 in the assay with A498, in the assay on TK-10, in the assay on Malme-3M, with ACHN, with UO-31 and in the assay with SF-539 was > 100 µM (inactive) in each case. Moreover, the GI50 with HOP-92, with COLO 205, in the assay on IGROV-1, in the assay with MOLT-4, with SK-MEL-28 and with HCT-116 was > 100 µM (inactive) throughout. For the same compound, the figures for the GI50 in the assay with OVCAR-5, in the assay on HL-60 and in the assay with HCT-15 were > 100 µM (inactive), > 100 µM (inactive) and > 100 µM, respectively.
Regarding `Cc1c(Cl)cccc1NC(=O)C(=O)C1C(=O)CC(C)(C)CC1=O`, the GI50 in the assay on A498, in the assay with TK-10, with Malme-3M, with ACHN, in the assay on UO-31 and in the assay on SF-539 was > 100 µM (inactive) in each case. Also, the GI50 with HOP-92, with COLO 205, in the assay with IGROV-1, in the assay on MOLT-4, with SK-MEL-28 and in the assay on HCT-116 was > 100 µM (inactive) in each case. The GI50 is > 100 µM (inactive) with OVCAR-5, > 100 µM (inactive) with HL-60 and > 100 µM in the assay with HCT-15.
For `O=C(NCCO)c1ccc([N+](=O)[O-])cc1`, the GI50 in the assay with A498, with TK-10, with Malme-3M, with UO-31, in the assay with SF-539 and with COLO 205 was > 100 µM (inactive) in each case. Further, the GI50 is > 100 µM (inactive) in the assay on IGROV-1; > 100 µM (inactive) in the assay on MOLT-4; > 100 µM (inactive) in the assay on SK-MEL-28; > 100 µM (inactive) in the assay on HL-60; > 100 µM with HCT-15.
With `CCCCCCCCC(O)C#CC(N)=O` (stereo not given), the GI50 with A498 is 16.4 µM (inactive); in the assay with TK-10, 16 µM (inactive); with Malme-3M, 16.7 µM (inactive); in the assay with ACHN, 12.4 µM (inactive); in the assay with UO-31, 10 µM (inactive); in the assay on SF-539, 12.5 µM (inactive). In addition, the GI50 in the assay with HOP-92 was 10.5 µM (inactive); in the assay with MOLT-4 it was 16.9 µM (inactive); in the assay on SK-MEL-28 it was 15.5 µM (inactive); in the assay with HCT-116, 3.67 µM (inactive); in the assay with OVCAR-5, 26.7 µM (inactive); in the assay with HL-60 it was 10.8 µM (inactive). The GI50 in the assay with HCT-15 is 13.2 µM.
`C=CC(=O)Nc1ccccc1CC(c1c[nH]c2ccccc12)c1c[nH]c2ccccc12`: the GI50 with TK-10 is 26.7 µM (inactive); in the assay on Malme-3M, 18 µM (inactive); in the assay with UO-31, 15.9 µM (inactive); in the assay with SF-539, 21.3 µM (inactive); in the assay on COLO 205, 16.7 µM (inactive); in the assay with IGROV-1, 18.2 µM (inactive). Besides, the results for the GI50 in the assay on MOLT-4, in the assay with SK-MEL-28 and with HCT-15 were 19.5 µM (inactive), 17.8 µM (inactive) and 18.7 µM, respectively.
On to `O=C1Nc2ccccc2N/C1=C\C(=O)c1ccccc1O`, for which the GI50 with A498, in the assay on TK-10, in the assay with Malme-3M, in the assay on ACHN, in the assay with UO-31 and in the assay with HOP-92 was > 100 µM (inactive) throughout. The GI50 in the assay with COLO 205, in the assay on IGROV-1, in the assay with MOLT-4, with SK-MEL-28, in the assay on HCT-116 and in the assay on OVCAR-5 was > 100 µM (inactive) throughout. The GI50 in the assay with HL-60 is > 100 µM (inactive); in the assay on HCT-15, > 100 µM.
As to `c1ccc2c(c1)CCCc1cc3ccccc3nc1-2`, the GI50 in the assay on A498 is 79.4 µM (inactive); in the assay on TK-10, > 100 µM (inactive); in the assay with Malme-3M, > 100 µM (inactive); with ACHN, > 100 µM (inactive); in the assay on UO-31, > 100 µM (inactive); in the assay on SF-539, > 100 µM (inactive). The GI50 in the assay with COLO 205 is 29.9 µM (inactive); in the assay on IGROV-1, > 100 µM (inactive); in the assay with MOLT-4, 57.5 µM (inactive); with SK-MEL-28, > 100 µM (inactive); in the assay with HCT-116, > 100 µM (inactive); in the assay with OVCAR-5, > 100 µM (inactive). Besides, the GI50 in the assay with HCT-15 is > 100 µM.
Take `CC(=O)SC(SC(C)=O)SC(C)=O`: the GI50 with A498, in the assay on TK-10, in the assay on Malme-3M, with ACHN, with UO-31 and in the assay on SF-539 was > 100 µM (inactive) in each case. For the same compound, the GI50 in the assay with COLO 205 is 27.3 µM (inactive); with IGROV-1, > 100 µM (inactive); with MOLT-4 it was 43.9 µM (inactive); in the assay on SK-MEL-28, > 100 µM (inactive); with HCT-116 it was > 100 µM (inactive); in the assay with OVCAR-5, > 100 µM (inactive). Besides, the GI50 in the assay on HL-60 was 51.3 µM (inactive); with HCT-15 it was 53.2 µM.
Turning to `Cc1cc2c(=O)c3ccccc3[nH]c2c(C(=O)O)c1C`, the GI50 in the assay with A498 is > 100 µM (inactive); in the assay with ACHN it was > 100 µM (inactive); with UO-31, 43.9 µM (inactive); with SF-539, > 100 µM (inactive); in the assay with HOP-92, < 0.01 µM (active); in the assay with COLO 205 it was > 100 µM (inactive). Moreover, the GI50 is > 100 µM (inactive) in the assay with IGROV-1; > 100 µM (inactive) with MOLT-4; > 100 µM (inactive) with SK-MEL-28; 76 µM (inactive) in the assay on HCT-116; 70.8 µM (inactive) in the assay with HL-60; > 100 µM with HCT-15.
For the compound `Cc1ccc(-c2cc(=O)c3cc(C)c(C)c(C(=O)O)c3o2)cc1N`, the GI50 in the assay with TK-10, in the assay with Malme-3M, in the assay on ACHN, in the assay with UO-31, with SF-539 and in the assay with COLO 205 was > 100 µM (inactive) throughout. The GI50 with IGROV-1 was > 100 µM (inactive); in the assay with MOLT-4 it was > 100 µM (inactive); with SK-MEL-28 it was > 100 µM (inactive); in the assay with HCT-116 it was > 100 µM (inactive); in the assay on OVCAR-5 it was > 100 µM (inactive); in the assay on HCT-15, > 100 µM.
For the compound `CC12OC3(O)C4C5CC(C6C5C3C61)C42` (stereo not given), the GI50 with TK-10, in the assay with Malme-3M, in the assay with ACHN, with UO-31, in the assay with SF-539 and in the assay on COLO 205 was > 100 µM (inactive) each time. For the same compound, the GI50 is > 100 µM (inactive) in the assay with MOLT-4; > 100 µM (inactive) in the assay with SK-MEL-28; > 100 µM (inactive) in the assay on HCT-116; > 100 µM (inactive) in the assay on HL-60; > 100 µM in the assay with HCT-15.
Regarding `CCC(=C(c1ccc(OCc2ccccc2)cc1)c1ccc(OCc2ccccc2)cc1)c1ccc(OC)cc1`, the GI50 with TK-10, with Malme-3M, with ACHN, in the assay with UO-31, with SF-539 and in the assay on HOP-92 was > 100 µM (inactive) each time. Further, the GI50 in the assay on COLO 205, in the assay on IGROV-1, in the assay with MOLT-4, in the assay on SK-MEL-28, in the assay with HCT-116 and in the assay on OVCAR-5 was > 100 µM (inactive) in each case. For the same compound, the values for the GI50 with HL-60 and in the assay on HCT-15 were > 100 µM (inactive) and > 100 µM, respectively.
Take `CC(=O)Nc1ccc(S(=O)(=O)N/N=C/CN2C(=O)c3ccccc3C2=O)cc1`: the GI50 with A498, with TK-10, with Malme-3M, in the assay with ACHN, in the assay on UO-31 and with SF-539 was > 100 µM (inactive) each time. The GI50 was > 100 µM (inactive) with COLO 205; > 100 µM (inactive) with IGROV-1; > 100 µM (inactive) in the assay with MOLT-4; > 100 µM (inactive) with HCT-116; > 100 µM (inactive) with HL-60; > 100 µM in the assay with HCT-15.
As for `C[C@]12CCC(=O)C(O)=C1CC[C@@H]1C2CC[C@]2(C)Nc3c(cnn3-c3ccccc3)CC12` (stereo not given in full), the GI50 was > 100 µM (inactive) in the assay on A498; > 100 µM (inactive) in the assay with TK-10; 91 µM (inactive) in the assay with Malme-3M; > 100 µM (inactive) in the assay on ACHN; 26.3 µM (inactive) in the assay on UO-31; 67.6 µM (inactive) with SF-539. Also, the GI50 with IGROV-1 was > 100 µM (inactive); in the assay with MOLT-4, 32.6 µM (inactive); with SK-MEL-28 it was > 100 µM (inactive); with HCT-116, 28.2 µM (inactive); in the assay with OVCAR-5 it was > 100 µM (inactive); in the assay on HL-60, 23.8 µM (inactive). In the assay on HCT-15, halving of growth (GI50) required 49.9 µM.
In the case of `O=CC1CCC=CC1NC(=O)OCc1ccccc1` (stereo not given), the GI50 in the assay on TK-10 was 53.3 µM (inactive); in the assay with ACHN, > 100 µM (inactive); in the assay with UO-31 it was > 100 µM (inactive); in the assay with SF-539, 23 µM (inactive); in the assay on HOP-92, 99.5 µM (inactive); in the assay with COLO 205 it was > 100 µM (inactive). Further, the GI50 was > 100 µM (inactive) in the assay on IGROV-1; 44.5 µM (inactive) in the assay with MOLT-4; > 100 µM (inactive) with SK-MEL-28; 19.1 µM (inactive) with HCT-116; > 100 µM (inactive) with OVCAR-5; 7.14 µM (inactive) in the assay on HL-60. This compound also had a concentration for 50% growth inhibition (GI50) in the assay on HCT-15 of 54.8 µM.
Turning to `Cn1cnc2nc(Cl)nc(NC(C)(C)C(C)(C)O)c21`, the GI50 with A498, in the assay on TK-10, in the assay with Malme-3M, with ACHN, in the assay with UO-31 and with SF-539 was > 100 µM (inactive) throughout. Further, the GI50 in the assay on HOP-92, in the assay with COLO 205, with IGROV-1, in the assay with MOLT-4, in the assay on HCT-116 and in the assay on OVCAR-5 was > 100 µM (inactive) each time. The GI50 in the assay on HL-60 is > 100 µM (inactive); with HCT-15 it was > 100 µM.
